Data as given in patent US9587471B2, “Controlling bioavailability of nutrient additions in subsurface formations” (E I DU PONT DE NEMOURS AND COMPANY, priority 2008, dated 2017).
Where a name gives a salt, the structure may show the parent alone.

What was measured:
[1] = test system: Pseudomonas stutzeri strain LH4:15 (ATCC PTA-8823); assay: Aerobic growth response (turbidity) to varying concentrations of industrial preservatives; type: cell-based;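 as to growth (turbidity): single plus means slight turbidity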
Description: (§1) Typically cells were grown at a temperature in the range of about 25° C. to about 40° C. in an appropriate medium.
Pseudomonas stutzeri strain LH4:15 (ATCC PTA-8823) was grown as outlined in Example 1. Various preservatives commonly used in the food, cosmetic, and water treatment industries were tested for their inhibitory effect at various concentrations (Table 2). Growth was monitored visually and positive growth was indicated by moderate to heavy turbidity.

[2] = test system: Pseudomonas stutzeri strain LH4:15 (ATCC PTA-8823); assay: Anaerobic growth and survival: biocidal versus biostatic inhibition; type: cell-based; conditions: for change in Log cell number: day 0 vs day 7, anaerobic; for Final anaerobic vial OD: starting OD600 = 0.05
Description: In this invention, the anaerobic growth and survival was tested in 20 ml crimp-capped anaerobic vials, using a complete nutrient medium of the following composition: Na2HPO4.7H2O, 1.4 g/L, KH2PO4, 0.69 g/L, NH4Cl, 0.5 g/L, MgSO4.7H2O, 0.1/L g, SL-10 trace metals, 10 ml, NaCl, 7.5 g/L, NaHCO3, 7.2 g/L, sodium nitrate, 12 g/L, Na lactate, 7 g/L, yeast extract, 10 mg/L, pH 7.3-7.8.
The anaerobic growth and survival was tested as outlined above. […] Vials were inoculated using an overnight aerobic culture of Pseudomonas stutzeri strain LH4:15 (ATCC PTA-8823) in Luria Bertani medium (LB, Mediatech Inc., Herndon, Va.,) at a final OD600 of 0.05. Within 2 hours of inoculation, serial dilutions from each treatment vial were made into aerobic LB medium to determine the cell numbers at Day 0. After approximately 24 hours cell numbers were estimated by noting the highest positive dilution based on the presence or absence of turbidity in dilutions of 10^−1 to 10^−11 in the serial dilution plates. Cell numbers on Day 0 and Day 7 were measured to obtain a survival estimate during inhibitor exposure.

[3] = test system: Pseudomonas stutzeri strain LH4:15, ATCC PTA-8823; assay: Aerobic growth response (turbidity) to varying concentrations of potential microbial nutrients; type: cell-based; as to growth response (turbidity): key: − = no turbidity; + = slight turbidity; ++ = moderate to heavy turbidity
Description: as §1
Additional potential microbial nutrients were added at various concentrations as outlined in Table 1. Growth was monitored visually with positive growth indicated by moderate to heavy turbidity.

[4] = Decline (hydrolysis) of ethyl formate in injection water; type: physicochemical; conditions: in about four days, anaerobic, approximately 25° C., 0.2% added
Description: The growth delay allows deeper penetration into the oil well formation and more widespread MEOR activation.
(§2) Injection water was amended with sodium nitrate as electron acceptor plus a growth substrates. In addition 0.2% ethyl formate was added to the inhibited treatment. The injection water was incubated anaerobically at approximately 25° C. under an atmosphere of 80% nitrogen and 20% carbon dioxide, reflecting typical growth conditions in the North Slope oil well formations. Growth of the native populations, nitrate concentrations and ethyl formate concentrations were monitored over two weeks.

[5] = test system: native anaerobic population in the injection water from the North Slope of Alaska; assay: Growth and nitrate+nitrite consumption of native populations in injection water; type: cell-based
Description: as §2

[6] = 50 g/L, 120 hours of incubation

OCCOc1ccccc1 [2-phenoxy-ethan-1-ol]
growth (turbidity) ([1]; 1 g/L): ++ | growth (turbidity) ([1]; 2 g/L): ++ | growth (turbidity) ([1]; 3 g/L): ++ | growth (turbidity) ([1]; 4 g/L): −

O=S(=O)([O-])[O-].OC[P+](CO)(CO)CO.OC[P+](CO)(CO)CO [Bis(tetrakis(hydroxymethyl))phosphonium sulfate]
growth (turbidity) ([1]; 0.1 g/L): ++ | growth (turbidity) ([1]; 0.2 g/L): ++ | growth (turbidity) ([1]; 0.3 g/L): − | growth (turbidity) ([1]; 0.4 g/L): −

COC(=O)c1ccc(O)cc1 [Methylparaben]
growth (turbidity) ([1]; 0.01 g/L): ++ | growth (turbidity) ([1]; 0.05 g/L): ++ | growth (turbidity) ([1]; 0.1 g/L): ++ | growth (turbidity) ([1]; 0.5 g/L): + | growth (turbidity) ([1]; 1 g/L): − | growth (turbidity) ([1]; 2.5 g/L): − | change in Log cell number ([2]; 0.5 g/L): 0 | Final anaerobic vial OD ([2]; 0.5 g/L): 0.09 | change in Log cell number ([2]; 0.6 g/L): 0 | Final anaerobic vial OD ([2]; 0.6 g/L): 0.05 | change in Log cell number ([2]; 0.8 g/L): 1 | Final anaerobic vial OD ([2]; 0.8 g/L): 0.05 | change in Log cell number ([2]; 1 g/L): −1 | Final anaerobic vial OD ([2]; 1 g/L): 0.04 | change in Log cell number ([2]; 2.5 g/L): −2 | Final anaerobic vial OD ([2]; 2.5 g/L): 0.01 | effectiveness of the inhibitor in words ([2]; judged by OD600 and cell killing, Table 3): showed this desirable property at the lowest efficacious concentrations

Cc1cc(O)ccc1Cl [4-chloro-3-metyhl phenol]
growth (turbidity) ([1]; 0.1 g/L): − | growth (turbidity) ([1]; 0.5 g/L): − | growth (turbidity) ([1]; 1 g/L): −

CN(C)C(=S)[S-].[Na+] [sodium dithiodimethyl carbamate]
growth (turbidity) ([1]; 0.1 g/L): ++ | growth (turbidity) ([1]; 0.2 g/L): ++ | growth (turbidity) ([1]; 0.3 g/L): − | growth (turbidity) ([1]; 0.5 g/L): − | growth (turbidity) ([1]; 0.8 g/L): − | growth (turbidity) ([1]; 1 g/L): − | concentration that must be reached before inhibition of microbial growth ends ([1]; stated 'as illustrated in Example 2'): < 0.1 g/L

CCCCCCCCCCCCN(C)C [N,N,-dimethyldodecylamine]
growth (turbidity) ([1]; 0.0001 g/L): ++ | growth (turbidity) ([1]; 0.001 g/L): ++ | growth (turbidity) ([1]; 0.005 g/L): ++ | growth (turbidity) ([1]; 0.01 g/L): ++ | growth (turbidity) ([1]; 0.1 g/L): − | growth (turbidity) ([1]; 0.5 g/L): − | growth (turbidity) ([1]; 1 g/L): −

NC(N)=O [Urea]
change in Log cell number ([2]; 20 g/L): −1 | Final anaerobic vial OD ([2]; 20 g/L): 0.2 | change in Log cell number ([2]; 30 g/L): −1 | Final anaerobic vial OD ([2]; 30 g/L): 0.13 | change in Log cell number ([2]; 50 g/L): −1 | Final anaerobic vial OD ([2]; 50 g/L): 0.03 | change in Log cell number ([2]; 100 g/L): −1 | Final anaerobic vial OD ([2]; 100 g/L): 0.02 | change in Log cell number ([2]; 200 g/L): Dead | Final anaerobic vial OD ([2]; 200 g/L): 0.01 | change in Log cell number ([2]; 300 g/L): Dead | Final anaerobic vial OD ([2]; 300 g/L): 0.01 | Growth response (turbidity) ([3]; 10 g/L, 24 hours of incubation): ++ | Growth response (turbidity) ([3]; 10 g/L, 48 hours of incubation): ++ | Growth response (turbidity) ([3]; 10 g/L, 120 hours of incubation): ++ | Growth response (turbidity) ([3]; 20 g/L, 24 hours of incubation): ++ | Growth response (turbidity) ([3]; 20 g/L, 48 hours of incubation): ++ | Growth response (turbidity) ([3]; 20 g/L, 120 hours of incubation): ++ | Growth response (turbidity) ([3]; 50 g/L, 24 hours of incubation): − | Growth response (turbidity) ([3]; 50 g/L, 48 hours of incubation): − | Growth response (turbidity) [3, 6]: − | Growth response (turbidity) ([3]; 100 g/L, 24 hours of incubation): − | Growth response (turbidity) ([3]; 100 g/L, 48 hours of incubation): − | Growth response (turbidity) ([3]; 100 g/L, 120 hours of incubation): − | Growth response (turbidity) ([3]; 200 g/L, 24 hours of incubation): − | Growth response (turbidity) ([3]; 200 g/L, 48 hours of incubation): − | Growth response (turbidity) ([3]; 200 g/L, 120 hours of incubation): − | concentration at which microbial growth was inhibited ([3]; aerobic growth at 30° C.): ≥ 50 g/L

Oc1ccccc1 [phenol]
growth (turbidity) ([1]; 0.01 g/L): ++ | growth (turbidity) ([1]; 0.05 g/L): ++ | growth (turbidity) ([1]; 0.1 g/L): ++ | growth (turbidity) ([1]; 0.5 g/L): ++ | growth (turbidity) ([1]; 1 g/L): ++ | growth (turbidity) ([1]; 10 g/L): − | growth (turbidity) ([1]; 50 g/L): −

CCOC=O [Ethyl formate]
decline of ethyl formate concentration [4]: 10 fold | delay of maximum growth ([5]; 0.2% concentration): four | effect on the maximum population in words ([5]; 0.2% concentration): longer maintenance of the maximum population | mean nitrate+nitrite loss rate ([5]; 0.2% ethyl formate): 190 ppm/day | consumption of electron acceptors nitrate+nitrite slower in the inhibited treatment ([5]; 0.2% ethyl formate vs no added ethyl formate): 31% | change in Log cell number ([2]; 5 g/L): −2 | Final anaerobic vial OD ([2]; 5 g/L): 0.02 | change in Log cell number ([2]; 10 g/L): −6 | Final anaerobic vial OD ([2]; 10 g/L): 0.01 | change in Log cell number ([2]; 25 g/L): −6 | Final anaerobic vial OD ([2]; 25 g/L): 0.005 | change in Log cell number ([2]; 50 g/L): Dead | Final anaerobic vial OD ([2]; 50 g/L): 0.05 | change in Log cell number ([2]; 80 g/L): Dead | Final anaerobic vial OD ([2]; 80 g/L): 0.06 | Growth response (turbidity) ([3]; 0.1 g/L, 24 hours of incubation): ++ | Growth response (turbidity) ([3]; 0.1 g/L, 48 hours of incubation): ++ | Growth response (turbidity) ([3]; 0.1 g/L, 120 hours of incubation): ++ | Growth response (turbidity) ([3]; 0.5 g/L, 24 hours of incubation): ++ | Growth response (turbidity) ([3]; 0.5 g/L, 48 hours of incubation): ++ | Growth response (turbidity) ([3]; 0.5 g/L, 120 hours of incubation): ++ | Growth response (turbidity) ([3]; 1 g/L, 24 hours of incubation): ++ | Growth response (turbidity) ([3]; 1 g/L, 48 hours of incubation): ++ | Growth response (turbidity) ([3]; 1 g/L, 120 hours of incubation): ++ | Growth response (turbidity) ([3]; 5 g/L, 24 hours of incubation): + | Growth response (turbidity) ([3]; 5 g/L, 48 hours of incubation): ++ | Growth response (turbidity) ([3]; 5 g/L, 120 hours of incubation): ++ | Growth response (turbidity) ([3]; 25 g/L, 24 hours of incubation): − | Growth response (turbidity) ([3]; 25 g/L, 48 hours of incubation): − | Growth response (turbidity) ([3]; 25 g/L, 120 hours of incubation): − | Growth response (turbidity) ([3]; 50 g/L, 24 hours of incubation): − | Growth response (turbidity) ([3]; 50 g/L, 48 hours of incubation): − | Growth response (turbidity) [3, 6]: −
